From US20150344444A1, “BET-PROTEIN-INHIBITING DIHYDROXYQUINOXALINONES” (BAYER PHARMA AKTIENGESELLSCHAFT, priority 2012, published 2015)

Legend:
[1] = target: T1, BRD4 Bromo Domain 2 [BRD4(2)] (Homo sapiens, UniProt O60885); test: BRD4(2)/acetylated peptide H4 binding assay (TR-FRET); conditions: inhibition of interaction between His6-tagged BRD4(2) (amino acids 357-445) and acetylated histone H4 peptide
T1 construct: N-terminally His6-tagged BRD4(2) (amino acids 357-445); made in house; host or cells: E. coli
Source text: Protein-Protein Interaction Assay: BRD4/Acetylated Peptide H4 Binding Assay
2. Assay Description for BRD4 Bromo Domain 2 [BRD4(2)]
To assess the BRD4(2) binding strength of the substances described in this application, the ability thereof to inhibit the interaction between BRD4(2) and acetylated histone H4 in a dose-dependent manner was quantified.
For this purpose, a time-resolved fluorescence resonance energy transfer (TR-FRET) assay was used, which measures the binding between N-terminally His6-tagged BRD4(2) (amino acids 357-445) and a synthetic acetylated histone H4 (Ac-H4) peptide with sequence SGRGK(Ac)GGK(Ac)GLGK(Ac)GGAK(Ac)RHRKVLRDNGSGSK-biotin. The recombinant BRD4(2) protein produced in house according to Filippakopoulos et al., Cell, 2012, 149:214-231 was expressed in E. coli and purified by means of (Ni-NTA) affinity and (Sephadex G-75) size exclusion chromatography. The Ac-H4 peptide can be purchased, for example, from Biosyntan (Berlin, Germany).
In the assay, typically 11 different concentrations of each substance (0.1 nM, 0.33 nM, 1.1 nM, 3.8 nM, 13 nM, 44 nM, 0.15 μM, 0.51 μM, 1.7 μM, 5.9 μM and 20 μM) were analysed as duplicates on the same microtitre plate. For this purpose, 100-fold concentrated solutions in DMSO were prepared by serial dilutions (1:3.4) of a 2 mM stock solution into a clear, 384-well microtitre plate (Greiner Bio-One, Frickenhausen, Germany). From this, 50 nl were transferred into a black test plate (Greiner Bio-One, Frickenhausen, Germany). The test was started by the addition of 2 μl of a 2.5-fold concentrated BRD4(2) solution (final concentration typically 100 nM in the 5 μl of reaction volume) in aqueous assay buffer [50 mM HEPES pH 7.5, 50 mM sodium chloride (NaCl); 50 mM potassium fluoride (KF); 0.25 mM CHAPS and 0.05% serum albumin (BSA)] to the substances in the test plate. This was followed by a 10-minute incubation step at 22° C. for the pre-equilibration of putative complexes between BRD4(2) and the substances.
The mixture was then incubated in the dark at 22° C. for one hour and then at 4° C. for at least 3 hours and for no longer than overnight. The formation of BRD4(2)/Ac-H4 complexes was determined by the measurement of the resonance energy transfer from the streptavidin-Eu chelate to the anti-6His-XL665 antibody present in the reaction. For this purpose, the fluorescence emission was measured at 620 nm and 665 nm after excitation at 330-350 nm in a TR-FRET measuring instrument, for example a Rubystar or Pherastar (both from BMG Lab Technologies, Offenburg, Germany) or a Viewlux (Perkin-Elmer). The ratio of the emissions at 665 nm and at 622 nm was taken as an indicator of the amount of BRD4(2)/Ac-H4 complexes formed.
The data (ratios) obtained were normalized, with 0% inhibition corresponding to the mean from the measurements for a set of controls (typically 32 data points) in which all the reagents were present. In these, in place of test substances, 50 nl of DMSO (100%) were used Inhibition of 100% corresponded to the mean from the measurements for a set of controls (typically 32 data points) in which all the reagents except BRD4(2) were present. The IC50 was determined by regression analysis based on a 4-parameter equation (minimum, maximum, IC50, Hill; Y=max+(min−max)/(1+(X/IC50)Hill)).

[2] = tested on: MOLM-13 cells; test: MOLM-13 cell proliferation assay (alamarBlue); assay type: cell-based; conditions: inhibition of cell proliferation, 96 hours, human AML cell line
Summary of the method: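 MOLM-13 AML cells (4000/well, RPMI1640 + 10% FCS) treated 96 h at 37 °C with 1E-5 to 1E-8 M compound. Proliferation by alamarBlue fluorescence (ex 530/em 590), pre-treatment reading subtracted; IC50 versus buffer-treated cells.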

[3] = tested on: MOLP-8 cells; test: MOLP-8 cell proliferation assay (alamarBlue); assay type: cell-based; conditions: inhibition of cell proliferation, 120 hours, human multiple myeloma cell line
Summary of the method: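 MOLP-8 myeloma cells in RPMI1640/20% FCS were treated with compound from 1E-5 to 1E-8 M for 120 h at 37 °C. Proliferation was measured by alamarBlue fluorescence (ex 530, em 590 nm), and the reading taken before dosing was subtracted. IC50 is relative to buffer-treated cells.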

IC50 [1] [nM] | IC50 [2] [nM] | Compound | IC50 [3] [nM]
48 | 145 | COc1ccc(CN2c3cc(Nc4ccc(S(=O)(=O)N(C)C)cc4)ccc3N(C)C(=O)[C@H]2C)cc1 [Example 41, 4-{[(3R)-4-(4-methoxybenzyl)-1,3-dimethyl-2-oxo-1,2,3,4-tetrahydroquinoxalin-6-yl]amino}-N,N-dimethylbenzenesulphonamide] | 77
68 | 149 | COc1ccc(CN2c3cc(Nc4ccc(S(=O)(=O)N5CCOCC5)cc4)ccc3N(C)C(=O)[C@H]2C)cc1 [Example 42, (3R)-4-(4-methoxybenzyl)-1,3-dimethyl-6-{[4-(morpholin-4-ylsulphonyl)phenyl]amino}-3,4-dihydroquinoxalin-2(1H)-one] | 61
54 | 145 | COc1ccc(CN2c3cc(Nc4ccc(S(=O)(=O)N5CCN(C)CC5)cc4)ccc3N(C)C(=O)[C@H]2C)cc1 [Example 43, (3R)-4-(4-methoxybenzyl)-1,3-dimethyl-6-({4-[(4-methylpiperazin-1-yl)sulphonyl]phenyl}amino)-3,4-dihydroquinoxalin-2(1H)-one] | 35
73 | 340 | COc1ccc(CN2c3cc(Nc4ccc(S(=O)(=O)N5CCN(C(C)C)CC5)cc4)ccc3N(C)C(=O)[C@H]2C)cc1 [Example 44, (3R)-4-(4-methoxybenzyl)-1,3-dimethyl-6-[(4-{[4-(propan-2-yl)piperazin-1-yl]sulphonyl}phenyl)amino]-3,4-dihydroquinoxalin-2(1H)-one] | 101
83 | 1340 | C[C@@H]1C(=O)N(C)c2ccc(Nc3ccc(S(=O)(=O)N(C)C)cc3)cc2N1C1CCCCCC1 [Example 45, 4-{[(3R)-4-cycloheptyl-1,3-dimethyl-2-oxo-1,2,3,4-tetrahydroquinoxalin-6-yl]amino}-N,N-dimethylbenzenesulphonamide] | 1100
148 | 719 | C[C@@H]1C(=O)N(C)c2ccc(Nc3ccc(S(=O)(=O)N(C)C)cc3)cc2N1C1CCOCC1 [Example 46, 4-{[(3R)-1,3-dimethyl-2-oxo-4-(tetrahydro-2H-pyran-4-yl)-1,2,3,4-tetrahydroquinoxalin-6-yl]amino}-N,N-dimethylbenzenesulphonamide] | 365
134 | 407 | C[C@@H]1C(=O)N(C)c2ccc(Nc3ccc(S(=O)(=O)N4CCOCC4)cc3)cc2N1C1CCOCC1 [Example 47, (3R)-1,3-dimethyl-6-{[4-(morpholin-4-ylsulphonyl)phenyl]amino}-4-(tetrahydro-2H-pyran-4-yl)-3,4-dihydroquinoxalin-2(1H)-one] | 496
112 | 1250 | C[C@@H]1C(=O)N(C)c2ccc(Nc3ccc(S(=O)(=O)N4CCN(C)CC4)cc3)cc2N1C1CCOCC1 [Example 48, (3R)-1,3-dimethyl-6-({4-[(4-methylpiperazin-1-yl)sulphonyl]phenyl}amino)-4-(tetrahydro-2H-pyran-4-yl)-3,4-dihydroquinoxalin-2(1H)-one] | 803

Second part, the compound before the results:

Compound | IC50 [1] [nM] | IC50 [2] [nM] | IC50 [3] [nM]
C[C@@H]1C(=O)N(C)c2ccc(Nc3ccc(C(=O)N4CC5(COC5)C4)cc3)cc2N1C1CCOCC1 [Example 29] | 158 | 2270 | 1120
C[C@@H]1C(=O)N(C)c2ccc(Nc3ccc(C(=O)NCCN4CCN(C)CC4)cc3)cc2N1C1CCOCC1 [Example 30, 4-{[(3R)-1,3-dimethyl-2-oxo-4-(tetrahydro-2H-pyran-4-yl)-1,2,3,4-tetrahydroquinoxalin-6-yl]amino}-N-[2-(4-methylpiperazin-1-yl)ethyl]benzamide] | 351 | 1700 | 869
C[C@@H]1C(=O)N(C)c2ccc(Nc3ccc(C(=O)N4CC5(CCS5(=O)=O)C4)cc3)cc2N1C1CCOCC1 [Example 31, (3R)-6-({4-[(1,1-dioxido-1-thia-6-azaspiro[3.3]hept-6-yl)carbonyl]phenyl}amino)-1,3-dimethyl-4-(tetrahydro-2H-pyran-4-yl)-3,4-dihydroquinoxalin-2(1H)-one] | 126 | 1790 | 1250
CC(=O)N1CCC(NC(=O)c2ccc(Nc3ccc4c(c3)N(C3CCOCC3)[C@H](C)C(=O)N4C)cc2)CC1 [Example 32, N-(1-acetylpiperidin-4-yl)-4-{[(3R)-1,3-dimethyl-2-oxo-4-(tetrahydro-2H-pyran-4-yl)-1,2,3,4-tetrahydroquinoxalin-6-yl]amino}benzamide] | 482 | 3450 | 2580
CC(C)N1CCN(C(=O)c2ccc(Nc3ccc4c(c3)N(C3CCOCC3)[C@H](C)C(=O)N4C)cc2)CC1 [Example 33] | 383 | 1050 | 509
C[C@@H]1C(=O)N(C)c2ccc(Nc3ccc(C(=O)NC4CN(C)C4)cc3)cc2N1C1CCOCC1 [Example 34, 4-{[(3R)-1,3-dimethyl-2-oxo-4-(tetrahydro-2H-pyran-4-yl)-1,2,3,4-tetrahydroquinoxalin-6-yl]amino}-N-(1-methylazetidin-3-yl)benzamide] | 238 | 2100 | 1540
C[C@@H]1C(=O)N(C)c2ccc(Nc3ccc(C(=O)NC4CC4)cc3)cc2N1C1CCOCC1 [Example 35, N-cyclopropyl-4-{[(3R)-1,3-dimethyl-2-oxo-4-(tetrahydro-2H-pyran-4-yl)-1,2,3,4-tetrahydroquinoxalin-6-yl]amino}benzamide] | 217 | 2480 | 1390
COc1cc(C(=O)NC2CCN(C)CC2)ccc1Nc1ccc2c(c1)N(C1CCOCC1)[C@H](C)C(=O)N2C [Example 36, 4-{[(3R)-1,3-dimethyl-2-oxo-4-(tetrahydro-2H-pyran-4-yl)-1,2,3,4-tetrahydroquinoxalin-6-yl]amino}-3-methoxy-N-(1-methylpiperidin-4-yl)benzamide] | 441 | 1080 | 675
COc1cc(C(=O)NC2CCC(N3CCN(CC4CC4)CC3)CC2)ccc1Nc1ccc2c(c1)N(C1CCOCC1)[C@H](C)C(=O)N2C (stereo partly drawn) [Example 37, N-{4-[4-(cyclopropylmethyl)piperazin-1-yl]cyclohexyl}-4-{[(3R)-1,3-dimethyl-2-oxo-4-(tetrahydro-2H-pyran-4-yl)-1,2,3,4-tetrahydroquinoxalin-6-yl]amino}-3-methoxybenzamide] | 410 | 1080 | 479
COc1cc(C(=O)N2CCN(C)CC2)ccc1Nc1ccc2c(c1)N(C1CCOCC1)[C@H](C)C(=O)N2C [Example 38, (3R)-6-({2-methoxy-4-[(4-methylpiperazin-1-yl)carbonyl]phenyl}amino)-1,3-dimethyl-4-(tetrahydro-2H-pyran-4-yl)-3,4-dihydroquinoxalin-2(1H)-one] | 382 | 1790 | 758
